Source: US12532889B2, “Herbicidal compositions comprising glufosinate” (BASF SE, priority 2023, dated 2026)

System: ELEIN (Eleusine indica)
Test: Post-emergence application in field trials (Example A)
Assay type: in vivo
Conditions: A-1 25, B-6 252 g ai/ha, water 400 l/ha
[1] = Table 5.1, ELEIN height 5-20 cm, 21 DAT
[2] = Table 5.6, ELEIN growth stage 14-15, height 9-14 cm, 28 DAT

Row | SMILES | % herbicidal activity [1] [%] | % herbicidal activity [2] [%]
1 | CP(=O)(O)CC[C@H](N)C(=O)O.N [B-6, glufosinate-P-ammonium] | 0 | 40
2 | CCOC(=O)COc1ccccc1Oc1nc(-n2c(=O)cc(C(F)(F)F)n(C)c2=O)c(F)cc1Cl [A-1, ethyl 2-[2-[[3-chloro-5-fluoro-6-[3-methyl-2,6-dioxo-4-(trifluoromethyl)pyrimidin-1-yl]-2-pyridyl]oxy]phenoxy]acetate] | 57 | 91
